Data: US10532053B2, “Histone deacetylase inhibitor, and preparation method and use thereof” (GUANGDONG ZHONGSHENG PHARMACEUTICAL CO., LTD, priority 2015, dated 2020)
Like-named read-outs stand apart in the source and are kept apart here.

Legend:
A2780s cells = details: A2780s model, 16 times; for tumor inhibitory rate: vs solvent group
Colon cancer HT29 = assay: Cell proliferative activity (MTT / cck-8); type: cell-based; details: Homo sapiens, HT-29, read-out: Half-Inhibitory Concentration IC50 HT29
[1] = test system: acetylation level of HDAC substrate (Ac-α-tubulin, Ac-H3); assay: Western blot assay for detecting the level of acetylated proteins; type: cell-based; details: HCT116 cells (FIG. 3) or MV4-11 cells (FIG. 4)
Protocol: The compounds or the positive control compound were added into each group of cells already adherent to the walls (2×10^6 HCT116 cells or 5×10^6 MV4-11 cells) at a designed concentration. After treatment for 4 hours, trypsin was added for digestion, followed by collecting the cells. After washing with cold PBS twice, the cells were lysed by adding RIPA lysis solution (which was purchased from Beyotime, Art. No.: P0013B, adding 1 mM PMSF before use), allowing for lysis on ice for 30 minutes while vortexing at intervals. The lysate was subjected to ultrasonic treatment on an ice bath (ultrasonicated for 3 seconds and repeated 5 times for each group at an interval of 10 seconds). The supernatant was collected by centrifugation at 12,000 g for 20 min at 4° C. and then mixed the SDS-PAGE loading buffer (purchased from Beyotime, Art. No.: P0015F). The mixture was heated in boiling water for 5 minutes to obtain a protein sample. The protein concentration of the sample was quantified by BCA method. 20 […] total protein from each group was subjected to 15% SDS-PAGE electrophoresis, and 5μl of a pre-stained protein marker (purchased from Thermo, Art. No.: 26616) was loaded to an additional selective lane in order to compare protein molecular weights as well as to detect the transmembrane result. When the bromophenol blue bands ran close to the bottom of the gel, the electrophoresis was terminated and the proteins on the gel were transferred to a PVDF membrane at a pore size of 0.22 μm. After 1.5 hours of transmembrane at a constant current of 200 mA, the PVDF membrane was removed and blocked in 5% skimmed milk for 1 hour. After completion of blocking, the membrane was incubated with the primary antibody (Ac-H3 antibody was purchased from Santa Cruz, Art. No.: sc-56616; Ac-α-tubulin antibody was purchased from Santa Cruz, Art. No.: sc-23950) overnight at 4° C. and then washed with TBS/T for 10 minutes for 3 times. The membrane was incubated with the horseradish peroxidase-coupled secondary antibody at room temperature for 1 hour, and then washed with TBS/T for 10 minutes for 3 times. After washing with TBS for 5 minutes, the membrane was exposed and developed by using a film in the darkroom. The detected GAPDH protein was an internal reference protein (GAPDH antibody was purchased from ZSGB-Bio, Art. No.: TA-08).

HDAC6 = target: T1, HDAC6 (Homo sapiens, UniProt Q9UBN7); assay: HDAC inhibitory activity, fluorescence-coupled acetylated peptide substrate assay; type: biochemical
T1 sequence (Q9UBN7 1-1215): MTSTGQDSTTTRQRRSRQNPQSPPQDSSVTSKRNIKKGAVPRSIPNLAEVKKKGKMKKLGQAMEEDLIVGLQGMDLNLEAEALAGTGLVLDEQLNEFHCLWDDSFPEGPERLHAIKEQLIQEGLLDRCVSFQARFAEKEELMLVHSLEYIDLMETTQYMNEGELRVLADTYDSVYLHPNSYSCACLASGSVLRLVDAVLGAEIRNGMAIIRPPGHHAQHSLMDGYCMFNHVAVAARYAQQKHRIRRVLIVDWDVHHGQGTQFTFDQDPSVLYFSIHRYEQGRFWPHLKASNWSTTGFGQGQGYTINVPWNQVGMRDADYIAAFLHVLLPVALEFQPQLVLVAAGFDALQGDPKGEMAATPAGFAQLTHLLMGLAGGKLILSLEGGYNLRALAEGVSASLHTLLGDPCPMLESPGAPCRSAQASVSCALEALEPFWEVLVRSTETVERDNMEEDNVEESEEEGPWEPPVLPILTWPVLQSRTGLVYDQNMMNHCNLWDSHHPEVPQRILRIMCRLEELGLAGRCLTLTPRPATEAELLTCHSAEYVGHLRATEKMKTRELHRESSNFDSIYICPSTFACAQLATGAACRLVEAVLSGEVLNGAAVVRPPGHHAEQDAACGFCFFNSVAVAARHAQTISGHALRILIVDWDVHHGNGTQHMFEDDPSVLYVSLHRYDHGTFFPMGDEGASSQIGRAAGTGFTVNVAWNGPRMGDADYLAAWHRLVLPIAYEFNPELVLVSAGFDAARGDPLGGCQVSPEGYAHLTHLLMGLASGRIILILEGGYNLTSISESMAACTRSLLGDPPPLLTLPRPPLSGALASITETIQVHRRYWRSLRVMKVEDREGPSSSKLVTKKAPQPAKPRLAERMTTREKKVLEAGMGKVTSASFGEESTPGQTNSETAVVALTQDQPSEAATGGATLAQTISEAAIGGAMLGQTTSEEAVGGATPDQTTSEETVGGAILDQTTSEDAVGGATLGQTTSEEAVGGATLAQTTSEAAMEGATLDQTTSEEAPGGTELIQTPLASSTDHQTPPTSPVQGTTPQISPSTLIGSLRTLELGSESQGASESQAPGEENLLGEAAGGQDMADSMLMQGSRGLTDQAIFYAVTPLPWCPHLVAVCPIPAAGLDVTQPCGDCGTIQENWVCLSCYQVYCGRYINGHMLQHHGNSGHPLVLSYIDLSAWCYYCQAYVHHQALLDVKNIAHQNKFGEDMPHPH
Protocol: The HDAC inhibitory activity was determined by fluorescence-coupled acetylated peptide substrate assay (Lys-Ac-AMC). HDAC1 protein was purchased from BPS Bioscience, and the reaction buffer system was a modified tris(hydroxymethyl)aminomethane buffer (pH 7.0). The small molecule compounds of the present invention were prepared by being dissolved in 100% DMSO. HDAC was prepared in a buffer at a certain concentration as an enzyme solution; trypsin and fluorescent group 4-amino-7-coumarin coupled-acetylated peptide (Ac-peptide) substrate were prepared in a buffer at a certain concentration as a substrate solution. The compounds were added into the reaction wells in a 384-well plate at a designed concentration of 10 μM, 1 μM, 0.5 μM, 0.1 μM, 0.05 μM, 0.01 μM, 0.005 μM, 0.001 μM, and 0.00005 μM, respectively, and then 15 μl of the HDAC solution was added into the reaction wells (15 μl of blank buffer to the control well). […] The results were analyzed by GraphPad Prism software and IC50 values were calculated according to the formula: Y=Background Data+(Top Data−Background Data)/(1+10^((Log IC50−X) a curve slope)), where Y: the inhibition rate (%) and X: the concentration of the compound.

Breast cancer SKBR3 = assay: Cell proliferative activity (MTT / cck-8); type: cell-based; details: Homo sapiens, SK-BR-3, read-out: Half-Inhibitory Concentration IC50 SKBR3
Colon cancer HCT116 = assay: Cell proliferative activity (MTT / cck-8); type: cell-based; details: Homo sapiens, HCT-116, read-out: Half-Inhibitory Concentration IC50 HCT116
HCT116 cells = assay: Therapeutic effect on the colon cancer HCT116 subcutaneous tumor model (intragastric); details: 8 times, vs solvent group
[2] = Assay on the bioavailability in SD rats (plasma, LC-MS/MS); type: in vivo; details: for Area under the curve / Clearance rate / Distribution volume / Half-life / Maximum plasma concentration: dose 12 mg/kg (Table 6)
[3] = 12.5 mg/kg intragastrically once every other day
[4] = 25 mg/kg intragastrically once every other day
[5] = 50 mg/kg intragastrically once every other day

In the case of COc1ccc(N(C)c2nc(C)nc3ccccc23)cc1OCCCC(=O)NO [III-2, N-hydroxy-4-(2-methoxy-5-(methyl(2-methyl-4-quinazolinyl)amino)phenoxy) butanamide], the tumor inhibitory rate (A2780s cells; [3]) is reported as 78.49%, the tumor inhibitory rate (A2780s cells; [4]) is reported as 82.02% and the “death of mice during the experiment” value (A2780s cells; [5]) is reported as “one mouse died”. For the same compound, the tumor inhibitory rate (A2780s cells; [5]) was 81.70%, the IC50 (Colon cancer HT29) was 72 ± 37 nM and the “acetylation of H3 (Ac-H3)” value [1] was “deacetylation of Ac-H3 by the compound III-2 was also demonstrated”. The “acetylation of α-tubulin” value [1] was “up-regulate the acetylated α-tubulin protease in a dose-dependent manner”, the IC50 (HDAC6; Table 2) was 10 to 100 nM and the IC50 (HDAC6; Table 4, Class IIb) was 17 ± 2 nM. The IC50 (Breast cancer SKBR3) was 22 ± 8 nM, the IC50 (Colon cancer HCT116) was 35 ± 21 nM and the tumor inhibitory rate (HCT116 cells; 6.25 mg/kg intragastrically once every other day) was 51.28%. It also gave a tumor inhibitory rate (HCT116 cells; [3]) of 58.64%, a tumor inhibitory rate (HCT116 cells; [4]) of 60.37% and a tumor inhibitory rate (HCT116 cells; [5]) of 66.05%. For the same compound, the “Area under the curve” value ([2]; intravenous administration) was 2434.117 μg/L · h, the Clearance rate ([2]; intravenous administration) was 7.008 L/h/kg and the Distribution volume ([2]; intravenous administration) was 61.263 L/kg. The Half-life ([2]; intravenous administration) was 7.658 h, the Maximum plasma concentration ([2]; intravenous administration) was 2213.217 µg/L and the Bioavailability ([2]; oral administration) was 47.0%. The “Area under the curve” value ([2]; oral administration) was 1242.234 μg/L · h, the Clearance rate ([2]; oral administration) was 12.877 L/h/kg and the Distribution volume ([2]; oral administration) was 154.811 L/kg. For the same compound, the Half-life ([2]; oral administration) was 9.62 h and the Maximum plasma concentration ([2]; oral administration) was 238.133 µg/L.
